In assay [1] the target is T1, human MR (mineralocorticoid receptor) (Homo sapiens, UniProt P08235).
T1 construct: expressed in transfected cells; host or cells: HEK293
T1 sequence (P08235 1-984): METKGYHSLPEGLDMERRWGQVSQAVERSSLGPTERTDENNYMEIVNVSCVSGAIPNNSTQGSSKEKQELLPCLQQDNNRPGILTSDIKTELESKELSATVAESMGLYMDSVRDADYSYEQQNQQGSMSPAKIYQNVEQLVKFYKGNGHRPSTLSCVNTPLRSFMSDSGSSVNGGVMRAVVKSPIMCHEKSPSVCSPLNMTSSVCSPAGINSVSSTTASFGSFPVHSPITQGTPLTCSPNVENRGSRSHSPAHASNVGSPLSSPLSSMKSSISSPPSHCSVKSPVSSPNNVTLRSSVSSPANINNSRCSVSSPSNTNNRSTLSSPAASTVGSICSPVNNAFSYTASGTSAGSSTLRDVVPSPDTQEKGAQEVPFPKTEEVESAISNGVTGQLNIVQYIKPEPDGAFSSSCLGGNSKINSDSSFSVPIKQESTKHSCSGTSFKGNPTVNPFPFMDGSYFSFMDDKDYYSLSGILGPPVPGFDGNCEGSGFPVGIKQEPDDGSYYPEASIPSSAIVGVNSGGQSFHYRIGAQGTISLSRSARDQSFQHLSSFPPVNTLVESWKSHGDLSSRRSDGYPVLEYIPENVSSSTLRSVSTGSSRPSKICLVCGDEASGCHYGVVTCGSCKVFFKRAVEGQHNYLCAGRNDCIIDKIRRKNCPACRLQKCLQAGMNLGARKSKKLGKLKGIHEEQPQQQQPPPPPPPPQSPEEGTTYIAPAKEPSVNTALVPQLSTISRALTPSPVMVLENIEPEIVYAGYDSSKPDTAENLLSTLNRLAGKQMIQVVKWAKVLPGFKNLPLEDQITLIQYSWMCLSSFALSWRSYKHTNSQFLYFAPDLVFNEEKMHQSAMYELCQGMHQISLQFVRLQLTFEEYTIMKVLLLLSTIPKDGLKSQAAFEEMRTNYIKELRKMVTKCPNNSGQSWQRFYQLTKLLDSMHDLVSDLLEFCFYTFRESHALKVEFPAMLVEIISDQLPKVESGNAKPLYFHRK
Kind of assay: MR competition binding assay (HEK293 cell lysate). To be noted: 0.25 nM 3H-aldosterone, 293-MR lysate. On the procedure:
(§1) Cell lysates from HEK293 cells overexpressing human GR (glucocorticoid receptor), AR (androgen receptor), MR (mineralocorticoid receptor) or PR (progesterone receptor) are used for competition binding assays to determine Ki values for compounds of interest. Briefly, competition binding assays are run in a buffer containing 20 mM HEPES, pH 7.6, 0.2 mM EDTA, 75 mM NaCl, 1.5 mM MgCl2, 20% glycerol, 20 mM sodium molybdate, 0.2 mM DTT, 20 ug/ml aprotinin, and 20 ug/ml leupeptin, using either 0.3 nM ^3H-dexamethasone for GR binding, 0.36 nM ^3H-methyltrienolone for AR binding, 0.25 nM ^3H-aldosterone for MR binding, or 0.29 nM ^3H-methyltrienolone for PR binding, and either 20 ug 293-GR lysate, 22 ug 293-AR lysate, 20 ug 293-MR lysate or 40 ug 293-PR lysate per well. Competing compounds are added at various concentrations in half-log increments. Non-specific binding is determined in the presence of 500 nM dexamethasone for GR binding, 500 nM aldosterone for MR binding, or 500 nM methyltrienolone for AR and PR binding. The binding reaction (140 μl) is incubated overnight at 4° C., then 70 μl of cold charcoal-dextran buffer (containing per 50 ml of assay buffer, 0.75 g of charcoal and 0.25 g of dextran) is added to each reaction. Plates are mixed 8 minutes on an orbital shaker at 4° C. Plates are then centrifuged at 3,000 rpm at 4° C. for 10 minutes. An aliquot of 120 μl of the mixture is transferred to another 96-well plate and 175 μl of Wallac Optiphase “Hisafe 3” scintillation fluid is added to each well. Plates are sealed and shaken vigorously on an orbital shaker. After an incubation of 2 hrs, plates are read in a Wallac Microbeta counter. […] The Kd for ^3H-dexamethasone for GR binding, ^3H-methyltrienolone for AR binding, ^3H-aldosterone for MR binding, or ^3H-methyltrienolone for PR binding, is determined by saturation binding. The IC50 values for compounds are converted to Ki using Cheng-Prusoff equation and the Kd determined by saturation binding assay.

The target of assay [2] is T2, human AR (androgen receptor) (Homo sapiens, UniProt P10275).
T2 construct: expressed in transfected cells; host or cells: HEK293
T2 sequence (P10275 1-920): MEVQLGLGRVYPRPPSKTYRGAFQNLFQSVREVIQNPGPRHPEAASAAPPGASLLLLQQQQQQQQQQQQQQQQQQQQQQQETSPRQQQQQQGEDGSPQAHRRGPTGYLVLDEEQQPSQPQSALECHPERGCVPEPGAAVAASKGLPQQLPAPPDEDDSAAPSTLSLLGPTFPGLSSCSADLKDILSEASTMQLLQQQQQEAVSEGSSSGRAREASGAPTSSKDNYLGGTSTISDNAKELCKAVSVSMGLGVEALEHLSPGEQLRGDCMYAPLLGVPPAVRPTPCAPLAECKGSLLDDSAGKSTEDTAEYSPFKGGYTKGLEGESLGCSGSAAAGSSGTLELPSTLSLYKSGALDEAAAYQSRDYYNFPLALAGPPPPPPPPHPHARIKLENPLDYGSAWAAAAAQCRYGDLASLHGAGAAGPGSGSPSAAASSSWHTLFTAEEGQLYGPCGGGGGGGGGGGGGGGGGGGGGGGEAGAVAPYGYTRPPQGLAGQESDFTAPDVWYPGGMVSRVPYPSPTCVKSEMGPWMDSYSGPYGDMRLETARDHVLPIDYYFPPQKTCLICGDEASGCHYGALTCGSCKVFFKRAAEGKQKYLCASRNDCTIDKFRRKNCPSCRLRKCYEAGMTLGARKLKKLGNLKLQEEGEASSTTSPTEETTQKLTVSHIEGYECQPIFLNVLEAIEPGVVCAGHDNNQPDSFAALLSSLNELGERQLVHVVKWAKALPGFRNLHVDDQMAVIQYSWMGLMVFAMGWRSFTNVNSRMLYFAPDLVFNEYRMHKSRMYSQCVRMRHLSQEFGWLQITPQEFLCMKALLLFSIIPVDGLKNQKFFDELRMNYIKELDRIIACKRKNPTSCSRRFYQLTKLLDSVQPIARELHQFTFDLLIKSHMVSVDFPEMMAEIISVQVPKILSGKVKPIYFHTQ
Kind of assay: AR competition binding assay (HEK293 cell lysate). To be noted: 0.36 nM 3H-methyltrienolone, 293-AR lysate. On the procedure:
as §1

In the case of `CS(=O)(=O)Nc1ccc2c(-c3ccc(C#N)cc3)cn(CC3CCCCC3)c2c1` [Example 77, N-[3-(4-Cyano-phenyl)-1-cyclohexylmethyl-1H-indol-6-yl]-methanesulfonamide], the Ki in assay [1] and in assay [2] was 0.1 to 0.5 µM throughout.

For `CCOC(=O)c1ccc(-c2cn(C(C)C)c3cc(NS(C)(=O)=O)ccc23)cc1` [Example 74, 4-(1-Isopropyl-6-methanesulfonylamino-1H-indol-3-yl)-benzoic acid ethyl ester], the inhibition constant Ki (commonly the dissociation constant of the complex between target and ligand, obtained from inhibition or displacement) in assay [1] is 0.1 to 0.5 µM; in assay [2], more than 1 µM.

In the case of `CC(C)n1cc(-c2ccc(C#N)c(F)c2)c2ccc(NS(C)(=O)=O)cc21` [Example 38, N-[3-(4-Cyano-3-fluoro-phenyl)-1-isopropyl-1H-indol-6-yl]-methanesulfonamide], the Ki in assay [1] and in assay [2] was 0.5 to 1 µM throughout.

`COc1ccc(-c2cn(C(C)C)c3cc(NS(C)(=O)=O)ccc23)cn1` [Example 88, N-[1-Isopropyl-3-(6-methoxy-pyridin-3-yl)-1H-indol-6-yl]-methanesulfonamide]: the Ki in assay [1] and in assay [2] was more than 1 µM throughout.

As for `Cc1ccc(-c2cn(C(C)C)c3cc(NS(C)(=O)=O)ccc23)cc1F` [Example 84, N-[3-(3-Fluoro-4-methyl-phenyl)-1-isopropyl-1H-indol-6-yl]-methanesulfonamide], the Ki in assay [1] and in assay [2] was 0.5 to 1 µM in each case.

Take `COc1ccc(-c2cn(C(C)C)c3cc(NS(C)(=O)=O)ccc23)cc1C` [Example 86, N-[1-Isopropyl-3-(4-methoxy-3-methyl-phenyl)-1H-indol-6-yl]-methanesulfonamide]: the inhibition constant (Ki) in assay [1] and in assay [2] was more than 1 µM each time.

On to `CC(C)n1cc(-c2ccc(C#N)n2C)c2ccc(NS(C)(=O)=O)cc21` [Example 78, N-[3-(5-Cyano-1-methyl-1H-pyrrol-2-yl)-1-isopropyl-1H-indol-6-yl]-methanesulfonamide], for which the Ki in assay [1] was 0.1 to 0.5 µM; in assay [2] it was 0.05 to 0.1 µM.

For the compound `CC(C)n1cc(-c2ccc3c(c2)COC3=O)c2ccc(NS(C)(=O)=O)cc21` [Example 97, N-[1-Isopropyl-3-(1-oxo-1,3-dihydro-isobenzofuran-5-yl)-1H-indol-6-yl]-methanesulfonamide], the Ki in assay [1] and in assay [2] was more than 1 µM each time.

Take `CSc1ccc(-c2cn(C(C)C)c3cc(NS(C)(=O)=O)ccc23)cc1` [Example 83, N-[1-Isopropyl-3-(4-methylsulfanyl-phenyl)-1H-indol-6-yl]-methanesulfonamide]: the Ki in assay [1] is 0.5 to 1 µM; in assay [2], more than 1 µM.

As for `CC(C)n1cc(-c2ccccc2)c2ccc(NS(C)(=O)=O)cc21` [Example 85, N-(1-Isopropyl-3-phenyl-1H-indol-6-yl)-methanesulfonamide], the Ki in assay [1] was 0.5 to 1 µM; in assay [2], 0.1 to 0.5 µM.

Consider `CC(C)n1cc(-c2ccc3c(cnn3C)c2)c2ccc(NS(C)(=O)=O)cc21` [Example 107, N-[1-Isopropyl-3-(1-methyl-1H-indazol-5-yl)-1H-indol-6-yl]-methanesulfonamide], for which the Ki in assay [1] and in assay [2] was more than 1 µM throughout.

As for `CC(C)n1cc(-c2ccc(C=NO)cc2)c2ccc(NS(C)(=O)=O)cc21` [Example 94, N-{3-[4-(Hydroxyimino-methyl)-phenyl]-1-isopropyl-1H-indol-6-yl}-methanesulfonamide], the inhibition constant (Ki) in assay [1] was 0.5 to 1 µM; in assay [2] it was 0.1 to 0.5 µM.

Consider `CC(C)n1cc(-c2ccc(C#N)s2)c2ccc(NS(C)(=O)=O)cc21` [Example 43, N-[3-(5-Cyano-thiophen-2-yl)-1-isopropyl-1H-indol-6-yl]-methanesulfonamide], for which the Ki in assay [1] and in assay [2] was 0.1 to 0.5 µM each time.

Take `Cn1cc(-c2ccc(C#N)cc2)c2ccc(NS(C)(=O)=O)cc21` [Example 25, N-[3-(4-Cyano-phenyl)-1-methyl-1H-indol-6-yl]-methanesulfonamide]: the inhibition constant (Ki) in assay [1] and in assay [2] was more than 1 µM throughout.

As to `Cn1cc(-c2ccc([N+](=O)[O-])cc2)c2ccc(NS(C)(=O)=O)cc21` [Example 30, N-[1-Methyl-3-(4-nitro-phenyl)-1H-indol-6-yl]-methanesulfonamide], the Ki in assay [1] and in assay [2] was more than 1 µM each time.

Take `CS(=O)(=O)Nc1ccc2c(-c3ccc(C#N)cc3)cn(C3CCCC3)c2c1` [Example 63, N-[3-(4-Cyano-phenyl)-1-cyclopentyl-1H-indol-6-yl]-methanesulfonamide]: the inhibition constant (Ki) in assay [1] and in assay [2] was more than 1 µM each time.

In the case of `CC(C)n1cc(-c2ccc3oc(=O)ccc3c2)c2ccc(NS(C)(=O)=O)cc21` [Example 96, N-[1-Isopropyl-3-(2-oxo-2H-chromen-6-yl)-1H-indol-6-yl]-methanesulfonamide], the Ki in assay [1] and in assay [2] was more than 1 µM each time.

Consider `CC(C)n1cc(-c2ccc(C(N)=O)cc2)c2ccc(NS(C)(=O)=O)cc21` [Example 87, 4-(1-Isopropyl-6-methanesulfonylamino-1H-indol-3-yl)-benzamide], for which the Ki in assay [1] and in assay [2] was more than 1 µM each time.

Regarding `CC(C)n1cc(-c2ccc(C#N)cc2)c2ccc(NS(C)(=O)=O)cc21` [Example 28, N-[3-(4-Cyano-phenyl)-1-isopropyl-1H-indol-6-yl]-methanesulfonamide], the Ki in assay [1] and in assay [2] was more than 1 µM throughout.

As for `CC(C)n1cc(-c2ccc(O)cc2)c2ccc(NS(C)(=O)=O)cc21` [Example 93, N-[3-(4-Hydroxy-phenyl)-1-isopropyl-1H-indol-6-yl]-methanesulfonamide], the Ki in assay [1] and in assay [2] was 0.1 to 0.5 µM each time.

(Values after patent publication US7932284B2, “Indole sulfonamide modulators of progesterone receptors” (Eli Lilly and Company, priority 2006, dated 2011).)
